# pEC50, pIC50: −log10 of the molar value.
# Key:
# PARP2 = molecular target: T1, PARP2 (Homo sapiens, UniProt Q9UGN5); test: DNA trapping capability of PARP2 (HTRF); format: biochemical
# T1 construct: purchased BPS 80502
# A549 PARP2-KO cell line = test: Cellular PARylation inhibition, high-content imaging, PARP2-KO; format: cell-based; details: PARylation at the cellular level
# MDA-MB-231 = test: Anti-proliferative activity (CellTiter-Glo, 7 days), MDA-MB-231; format: cell-based, human
# PARP11 = molecular target: T2, PARP11 (Homo sapiens, UniProt Q9NR21); test: Inhibition of PARP11 enzyme activity (chemiluminescent assay kit); format: biochemical
# T2 construct: purchased BPS 80511
# T2 sequence (Q9NR21 1-338): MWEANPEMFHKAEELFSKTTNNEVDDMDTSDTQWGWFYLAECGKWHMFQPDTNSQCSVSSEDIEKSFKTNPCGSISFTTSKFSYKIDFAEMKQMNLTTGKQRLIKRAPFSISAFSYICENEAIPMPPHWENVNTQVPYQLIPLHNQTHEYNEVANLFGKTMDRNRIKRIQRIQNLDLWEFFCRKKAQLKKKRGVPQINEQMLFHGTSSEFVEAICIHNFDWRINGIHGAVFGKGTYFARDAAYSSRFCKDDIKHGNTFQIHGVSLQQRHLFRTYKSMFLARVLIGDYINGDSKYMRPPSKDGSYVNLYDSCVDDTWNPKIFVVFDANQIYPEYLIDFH
# DLD-1 BRCA2^-/- cells = test: Apoptosis in BRCA2-deficient DLD-1 cells (Annexin V/PI flow cytometry); format: cell-based, human; details: 7 days, different concentrations, three experiments, FIG. 4
# Experimental: The mechanism of the anti-proliferative effect of the compounds on BRCA-mutated tumours was analysed, and the impact of the compounds on apoptosis in the BRCA2-mutated cell line was analysed by flow cytometry. BRCA2-deficient human colon cancer DLD-1 cells ([…]) were adherently cultured, with the culture conditions of RPMI1640 medium supplemented with 1% foetal bovine serum and 100 µg/mL hygromycin B. Once entering the logarithmic growth phase, the cells were collected and placed in a 6-well plate with 600,000 cells per well. The cells were allowed to adhere to the plate in a 37°C/5% CO2 incubator overnight. Different concentrations of compounds were added to each well and incubated in the incubator. After 7 days, the cells were collected and placed in a 96-well plate. 195 µL of Annexin V-FITC binding buffer was added to each well to resuspend the cells. Then 5 µL of Annexin V-FITC (beyotime, C1052) was added and gently mixed. […] The data acquired from the flow cytometer were analysed using FlowJo software.
# For apoptosis analysis, the apoptosis samples were dragged into FlowJo, the raw data were double-clicked to open the graph window, and FSC-A was selected for the X-axis and SSC-A for the Y-axis. […] The "analysed cell population" was double-clicked in the SSC/FSC plot. […]
# cleaved caspase-3 = test: Cleaved caspase-3 in MDA-MB-436 xenograft tumour tissues (immunoblotting); format: in vivo, mice; details: 10 days of treatment, 0.25 hours and 24 hours after the last administration, FIG. 5 and 6
# Experimental: The pro-apoptotic effect of the compounds was further verified in vivo. The changes of cleaved caspase-3 in subcutaneous xenograft tumour tissues of MDA-MB-436 mice were detected by immunoblotting. After 10 days of treatment with different compounds, the animals were euthanized 0.25 hours and 24 hours after the last administration, and the tumour tissues were obtained for analysis. The rapidly frozen tumour tissues were placed on dry ice, 350 µL of complete cell lysis buffer (containing 1% protease inhibitors and phosphatase inhibitors) was added, the tissues were disrupted using Tissue grinder for 5 minutes, and the tissue lysate was placed on ice for 30 minutes. Centrifugation was performed at 12,000 rpm and 4°C for 10 minutes, the supernatant was placed in a new 1.5 mL centrifuge tube, and protein quantification was carried out using a BCA quantification kit. According to the quantitative results, the sample protein concentration was uniformly adjusted to 2 µg/µL, LDS loading buffer (4X) and sample reducing agent (10X) were added, and the samples were heated at a constant temperature of 100°C for 10 minutes. For Western blotting, 10 µL of sample was loaded into each well of an SDS-PAGE gel, and electrophoresis was performed at 80 V for 30 minutes, followed by 120 V for 90 minutes. […] The membrane was then cut according to the molecular weights of the proteins to be detected. […]
# T1 sequence (Q9UGN5 whole entry): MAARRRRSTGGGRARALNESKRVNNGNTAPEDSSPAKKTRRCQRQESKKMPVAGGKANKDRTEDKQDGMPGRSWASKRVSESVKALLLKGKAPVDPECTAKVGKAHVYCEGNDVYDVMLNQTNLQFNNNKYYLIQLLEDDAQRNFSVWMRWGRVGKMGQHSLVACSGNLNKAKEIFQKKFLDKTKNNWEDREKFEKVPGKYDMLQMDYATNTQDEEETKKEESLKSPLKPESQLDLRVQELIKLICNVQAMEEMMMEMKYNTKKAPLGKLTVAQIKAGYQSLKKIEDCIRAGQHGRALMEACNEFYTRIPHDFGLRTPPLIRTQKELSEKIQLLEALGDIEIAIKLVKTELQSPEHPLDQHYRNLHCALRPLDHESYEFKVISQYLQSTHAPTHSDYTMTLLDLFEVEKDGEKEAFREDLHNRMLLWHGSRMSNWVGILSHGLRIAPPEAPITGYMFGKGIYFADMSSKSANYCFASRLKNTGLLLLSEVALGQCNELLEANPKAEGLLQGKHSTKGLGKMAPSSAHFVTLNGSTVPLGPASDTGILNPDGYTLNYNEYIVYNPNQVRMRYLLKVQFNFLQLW
smiles,measurement,setting,value
"[2H]C([2H])([2H])NC(=O)c1ccc(N2CCN(Cc3cnc4c(N)c(CC)c(=O)[nH]c4c3)CC2)c(F)n1 [Example 4, 5-(4-((8-Amino-7-ethyl-6-oxo-5,6-dihydro-1,5-naphthyridin-3-yl)methyl)piperazin-1-yl)-6-fluoro-N-(methyl-d3)picolinamide]",pEC50,PARP2,6.42
same,pIC50,"A549 PARP2-KO cell line; Homo sapiens, A549, read-out: PARP2-KO IC50",8.11
same,PARP1 KO/PARP2 KO selectivity fold,A549 PARP2-KO cell line,>5222 fold
same,inhibition on cell proliferation at the highest concentration,"MDA-MB-231; BRCA1-normal MDA-MB-231 cell line, 10 µM",no detectable inhibition
same,pIC50,"MDA-MB-231; Homo sapiens, MDA-MB-231, 168 h, BRCA1-normal, 7 days, read-out: MDA-MB-231 IC50",< 5.00
same,pIC50,PARP11; enzyme activity,6.37
same,PARP11 multiple vs PARP1,PARP11; ratio relative to the PARP1 enzyme activity,880
same,proportion of apoptotic cells,DLD-1 BRCA2^-/- cells,higher proportion of apoptotic cells at different concentrations than the reference compound AZD5305
same,cleaved caspase-3 in tumour tissues,cleaved caspase-3,induced an increase in cleaved caspase-3
